# Several values for one entry are separate records, joined by “and”; a condition that tells them apart may be missing. Equal entries are not always repeated. Inconclusive results and toxic doses are left out.
# Tested on: L1210 leukemia ip in BDF1 mice, survival T/C
# Experiment: NCI In Vivo Anticancer Drug Screen. Data for tumor model L1210 Leukemia (intraperitoneal) in B6D2F1 (BDF1) mice
# Conditions: endpoint: mean survival time, higher = longer survival
# Procedure, shortened: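 Each compound was tested against a transplantable tumor grown in mice. The endpoint was survival, with treated animals benchmarked against vehicle controls as a simple ratio.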
# [1] = dose: 50.0 mg/kg/injection, schedule: Q01DX009 (ip), vehicle: saline
# [2] = dose: 100.0 mg/kg/injection, schedule: Q01DX009 (ip), vehicle: saline
# [3] = dose: 100.0 mg/kg/injection, schedule: Q01DX001 (ip), vehicle: saline
# [4] = dose: 200.0 mg/kg/injection, schedule: Q01DX001 (ip), vehicle: saline
# [5] = dose: 100.0 mg/kg/injection, schedule: Q01DX009 (ip), vehicle: Klucel (hydroxypropylcellulose) (HPC)
# [6] = dose: 100.0 mg/kg/injection, schedule: Q04DX002 (ip), vehicle: Klucel (hydroxypropylcellulose) (HPC)
# [7] = dose: 200.0 mg/kg/injection, schedule: Q01DX009 (ip), vehicle: Klucel (hydroxypropylcellulose) (HPC)
# [8] = dose: 200.0 mg/kg/injection, schedule: Q04DX002 (ip), vehicle: Klucel (hydroxypropylcellulose) (HPC)
# [9] = dose: 400.0 mg/kg/injection, schedule: Q01DX009 (ip), vehicle: Klucel (hydroxypropylcellulose) (HPC)
# [10] = dose: 400.0 mg/kg/injection, schedule: Q04DX002 (ip), vehicle: Klucel (hydroxypropylcellulose) (HPC)
# [11] = dose: 100.0 mg/kg/injection, schedule: Q04DX003 (ip), vehicle: saline
# [12] = dose: 25.0 mg/kg/injection, schedule: Q01DX009 (ip), vehicle: Klucel (hydroxypropylcellulose) (HPC)
# [13] = dose: 50.0 mg/kg/injection, schedule: Q01DX009 (ip), vehicle: Klucel (hydroxypropylcellulose) (HPC)
structure (smiles),measurement,setting,value
NC(=O)c1ccc[n+](CCO)c1,T/C,"dose: 3.1 mg/kg/injection, schedule: Q01DX009 (ip), vehicle: saline",102 % of control
same,T/C,"dose: 6.25 mg/kg/injection, schedule: Q01DX009 (ip), vehicle: saline",104 % of control
same,T/C,"dose: 12.5 mg/kg/injection, schedule: Q01DX009 (ip), vehicle: saline",98 % of control
same,T/C,"dose: 25.0 mg/kg/injection, schedule: Q01DX009 (ip), vehicle: saline",104 % of control
same,T/C,[1],110 % of control
same,T/C,[2],100 % of control
same,T/C,"dose: 115.0 mg/kg/injection, schedule: Q01DX Z (ip), vehicle: saline",100 % of control
same,T/C,"dose: 150.0 mg/kg/injection, schedule: Q04DX003 (ip), vehicle: saline",100 % of control
same,T/C,"dose: 175.0 mg/kg/injection, schedule: Q01DX Z (ip), vehicle: saline",94 % of control
same,T/C,"dose: 225.0 mg/kg/injection, schedule: Q04DX003 (ip), vehicle: saline",104 % of control
same,T/C,"dose: 265.0 mg/kg/injection, schedule: Q01DX Z (ip), vehicle: saline",105 % of control
same,T/C,"dose: 335.0 mg/kg/injection, schedule: Q04DX003 (ip), vehicle: saline",100 % of control
same,T/C,"dose: 400.0 mg/kg/injection, schedule: Q01DX Z (ip), vehicle: saline",100 % of control
Cc1c(C)n(C2OC(CO)C(O)C2O)c(=O)[nH]c1=O (stereo unspecified),T/C,[3],96 % of control
same,T/C,[4],108 % of control
same,T/C,"dose: 400.0 mg/kg/injection, schedule: Q01DX001 (ip), vehicle: saline",93 % of control
ClCCN=Cc1ccc(Cl)cc1,T/C,[5],96 % of control
same,T/C,[6],96 % of control
same,T/C,[7],91 % of control
same,T/C,[8],100 % of control
same,T/C,[9],96 % of control
same,T/C,[10],100 % of control
CC12CCC(=O)C=C1CCC1C2C(O)CC2(C)C1CCC2(O)C(=O)CSc1ccc(N(CCCl)CCCl)cc1 (stereo unspecified),T/C,"dose: 100.0 mg/kg/injection, schedule: Q01DX001 (sc), vehicle: steriod suspending solution",92 % of control
same,T/C,"dose: 200.0 mg/kg/injection, schedule: Q01DX001 (sc), vehicle: steriod suspending solution",100 % of control
same,T/C,"dose: 400.0 mg/kg/injection, schedule: Q01DX001 (sc), vehicle: steriod suspending solution",103 % of control
Cc1csc(C)[n+]1[O-],T/C,[11],102 % of control
same,T/C,"dose: 200.0 mg/kg/injection, schedule: Q04DX003 (ip), vehicle: saline",101 % of control
same,T/C,"dose: 400.0 mg/kg/injection, schedule: Q04DX003 (ip), vehicle: saline",98 % of control
CN1C(=O)CCS(=O)(=O)C1c1ccc(Cl)cc1 (stereo unspecified),T/C,[12],104 % of control
same,T/C,"dose: 25.0 mg/kg/injection, schedule: Q04DX003 (ip), vehicle: Klucel (hydroxypropylcellulose) (HPC)",94 % of control
same,T/C,[13],103 % of control
same,T/C,"dose: 50.0 mg/kg/injection, schedule: Q04DX003 (ip), vehicle: Klucel (hydroxypropylcellulose) (HPC)",101 % of control
same,T/C,[5],101 % of control
same,T/C,"dose: 100.0 mg/kg/injection, schedule: Q04DX003 (ip), vehicle: Klucel (hydroxypropylcellulose) (HPC)",101 % of control
same,T/C,[7],92 % of control
same,T/C,"dose: 200.0 mg/kg/injection, schedule: Q04DX003 (ip), vehicle: Klucel (hydroxypropylcellulose) (HPC)",97 % of control
same,T/C,"dose: 400.0 mg/kg/injection, schedule: Q04DX003 (ip), vehicle: Klucel (hydroxypropylcellulose) (HPC)",99 % of control
CCN(CC)CCNc1ccccc1Cl,T/C,[3],101 % of control
same,T/C,[4],101 % of control
CC1(C)SC(C(NC(=O)Cc2ccccc2)C(=O)O)NC1C(=O)O (stereo unspecified),T/C,"dose: 100.0 mg/kg/injection, schedule: Q01DX009 (ip), vehicle: saline with Tween-80",92 % of control
same,T/C,"dose: 400.0 mg/kg/injection, schedule: Q01DX009 (ip), vehicle: saline with Tween-80",97 % of control
O=C(/C=C\C(=O)Nc1ccc(C2=NCCN2)cc1)Nc1ccc(C2=NCCN2)cc1,T/C,"dose: 15.0 mg/kg/injection, schedule: Q01DX Z (ip), vehicle: saline",124 % of control
same,T/C,"dose: 30.0 mg/kg/injection, schedule: Q01DX Z (ip), vehicle: saline",177 % of control
same,T/C,"dose: 30.0 mg/kg/injection, schedule: Q01DX Z (oral), vehicle: saline",103 % of control
same,T/C,"dose: 60.0 mg/kg/injection, schedule: Q01DX Z (ip), vehicle: saline",170 % of control
same,T/C,"dose: 60.0 mg/kg/injection, schedule: Q01DX Z (oral), vehicle: saline",114 % of control
same,T/C,"dose: 120.0 mg/kg/injection, schedule: Q01DX Z (oral), vehicle: saline",103 % of control
same,T/C,"dose: 240.0 mg/kg/injection, schedule: Q01DX Z (oral), vehicle: saline",102 % of control
O=C(Nc1cccc([N+](=O)[O-])c1)N1CCCC1,T/C,"dose: 100.0 mg/kg/injection, schedule: Q01DX001 (ip), vehicle: carboxymethylcellulose (CMC)",98 % of control
same,T/C,"dose: 200.0 mg/kg/injection, schedule: Q01DX001 (ip), vehicle: carboxymethylcellulose (CMC)",102 % of control
same,T/C,"dose: 400.0 mg/kg/injection, schedule: Q01DX001 (ip), vehicle: carboxymethylcellulose (CMC)",100 % of control
C[N+]1(CC(O)COc2ccc(Nc3ccc(N)c4c3C(=O)c3ccccc3C4=O)cc2)CCOCC1 (stereo unspecified),T/C,"dose: 100.0 mg/kg/injection, schedule: Q01DX001 (ip), vehicle: acetone",90 % of control
Cc1ccc(NC(=S)N2CCCC(C)C2)cc1C (stereo unspecified),T/C,[5],102 % of control
same,T/C,[7],100 % of control
same,T/C,[9],102 % of control
NC(=O)NN=C1CCCCC1,T/C,"dose: 12.5 mg/kg/injection, schedule: Q01DX009 (ip), vehicle: Klucel (hydroxypropylcellulose) (HPC)",97 % of control
same,T/C,[12],97 % of control
same,T/C,[13],102 % of control
same,T/C,"dose: 70.0 mg/kg/injection, schedule: Q01DX009 (ip), vehicle: Klucel (hydroxypropylcellulose) (HPC)",87 % of control
CC1c2ccccc2N(S(=O)(=O)c2ccccc2)C1C (stereo unspecified),T/C,"dose: 100.0 mg/kg/injection, schedule: Q01DX009 (ip), vehicle: gum acacia",108 % of control
same,T/C,"dose: 100.0 mg/kg/injection, schedule: Q04DX003 (ip), vehicle: gum acacia",96 % of control
same,T/C,"dose: 200.0 mg/kg/injection, schedule: Q01DX009 (ip), vehicle: gum acacia",104 % of control
same,T/C,"dose: 200.0 mg/kg/injection, schedule: Q04DX003 (ip), vehicle: gum acacia",102 % of control
same,T/C,"dose: 400.0 mg/kg/injection, schedule: Q01DX009 (ip), vehicle: gum acacia",93 % of control
same,T/C,"dose: 400.0 mg/kg/injection, schedule: Q04DX003 (ip), vehicle: gum acacia",96 % of control
CCN(CC)CCOc1ccc(OC)cc1,T/C,"dose: 25.0 mg/kg/injection, schedule: Q04DX003 (ip), vehicle: saline",91 % of control
same,T/C,[1],102 % of control
same,T/C,"dose: 50.0 mg/kg/injection, schedule: Q04DX003 (ip), vehicle: saline",115 % of control
same,T/C,[2],111 % of control
same,T/C,[11],104 % of control and 121 % of control
CCOC(=O)C(=N\Nc1cccc(C)c1C)/C(C)=N\NC(N)=S,T/C,"dose: 75.0 mg/kg/injection, schedule: Q01DX001 (ip), vehicle: saline",94 % of control
same,T/C,"dose: 150.0 mg/kg/injection, schedule: Q01DX001 (ip), vehicle: saline",97 % of control
same,T/C,"dose: 300.0 mg/kg/injection, schedule: Q01DX001 (ip), vehicle: saline",97 % of control
N#CCCN(Cc1ccccc1)C(=S)Nc1ccc(C(F)(F)F)cc1,T/C,[6],100 % of control
same,T/C,[8],100 % of control
same,T/C,[10],100 % of control
COC(=O)N/N=C/c1ccccc1OC,T/C,[6],104 % of control
same,T/C,[8],104 % of control
same,T/C,[10],93 % of control
C(=C\c1ccc(C2=NCCN2)cc1)/c1ccc(C2=NCCN2)cc1,T/C,"dose: 11.5 mg/kg/injection, schedule: Q01DX Z (ip), vehicle: carboxymethylcellulose (CMC)",115 % of control
same,T/C,"dose: 23.0 mg/kg/injection, schedule: Q01DX Z (ip), vehicle: carboxymethylcellulose (CMC)",119 % of control
same,T/C,"dose: 46.0 mg/kg/injection, schedule: Q01DX Z (ip), vehicle: carboxymethylcellulose (CMC)",150 % of control
same,T/C,"dose: 62.0 mg/kg/injection, schedule: Q01DX Z (oral), vehicle: carboxymethylcellulose (CMC)",103 % of control
same,T/C,"dose: 125.0 mg/kg/injection, schedule: Q01DX Z (oral), vehicle: carboxymethylcellulose (CMC)",108 % of control
same,T/C,"dose: 250.0 mg/kg/injection, schedule: Q01DX Z (oral), vehicle: carboxymethylcellulose (CMC)",104 % of control
same,T/C,"dose: 500.0 mg/kg/injection, schedule: Q01DX Z (oral), vehicle: carboxymethylcellulose (CMC)",101 % of control
